According to PubChem BioAssay (NCI):
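Dose response: 5 concentrations. Exposure: 48 h. Format: 96-well plates. Endpoint: linear interpolation; highest concentration if not reached. GI50: concentration for 50% inhibition of growth. At the TGI there is no net growth.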

What was measured:
Assay in all cases: NCI anticancer screen, dose series, 48 h
[1] = system: 786-0 renal
[2] = system: A498 renal
[3] = system: A549 NSCLC
[4] = system: ACHN renal
[5] = system: BT-549 breast
[6] = system: CAKI-1 renal
[7] = system: CCRF-CEM leukemia
[8] = system: COLO 205 colon
[9] = system: DU-145 prostate
[10] = system: HCC-2998 colon
[11] = system: HCT-116 colon
[12] = system: HCT-15 colon
[13] = system: HL-60(TB) leukemia
[14] = system: HOP-62 NSCLC
[15] = system: HOP-92 NSCLC
[16] = system: HS 578T breast
[17] = system: HT29 colon
[18] = system: IGROV1 ovarian
[19] = system: K-562 leukemia
[20] = system: KM12 colon
[21] = system: LOX IMVI melanoma
[22] = system: M14 melanoma
[23] = system: MALME-3M melanoma
[24] = system: MCF7 breast
[25] = system: MDA-MB-231 breast
[26] = system: MDA-MB-435
[27] = system: MOLT-4 leukemia
[28] = system: NCI-H226 lung
[29] = system: NCI-H23 lung
[30] = system: NCI-H460 lung
[31] = system: NCI-H522 lung
[32] = system: NCI/ADR-RES ovarian
[33] = system: OVCAR-3 ovarian
[34] = system: OVCAR-4 ovarian
[35] = system: OVCAR-5 ovarian
[36] = system: OVCAR-8 ovarian
[37] = system: PC-3 prostate
[38] = system: RPMI-8226 leukemia
[39] = system: RXF 393 renal
[40] = system: SF-268 CNS
[41] = system: SF-295 CNS
[42] = system: SF-539 CNS
[43] = system: SK-MEL-2 melanoma
[44] = system: SK-MEL-28 melanoma
[45] = system: SK-MEL-5 melanoma
[46] = system: SK-OV-3 ovarian
[47] = system: SN12C renal
[48] = system: SNB-19 CNS
[49] = system: SNB-75 CNS
[50] = system: SR leukemia
[51] = system: SW-620 colon
[52] = system: T-47D breast
[53] = system: TK-10 renal
[54] = system: U251 CNS
[55] = system: UACC-257 melanoma
[56] = system: UACC-62 melanoma
[57] = system: UO-31 renal

CCN(Cc1cc(F)cc(F)c1)c1ccc(CO)c(Cl)c1
GI50 [1]: 12.5 µM
TGI [1]: 27.2 µM
GI50 [2]: 0.0343 µM
TGI [2]: 0.167 µM
GI50 [3]: 2.36 µM
TGI [3]: 21.5 µM
GI50 [4]: 13.3 µM
TGI [4]: 27 µM
GI50 [5]: 14.4 µM
TGI [5]: 29.1 µM
GI50 [6]: 0.456 µM
TGI [6]: 2.64 µM
GI50 [7]: 18.5 µM
TGI [7]: 66.5 µM
GI50 [8]: 3 µM
TGI [8]: 10.5 µM
GI50 [9]: 15.4 µM
TGI [9]: 34.2 µM
GI50 [10]: 7.68 µM
TGI [10]: 23.6 µM
GI50 [11]: 0.0723 µM
TGI [11]: 8.31 µM
GI50 [12]: 12.4 µM
TGI [12]: 29.9 µM
GI50 [13]: 7.25 µM
TGI [13]: 32.7 µM
GI50 [14]: 2.67 µM
TGI [14]: 20.2 µM
GI50 [15]: 0.195 µM
TGI [15]: 9.25 µM
GI50 [16]: 16.4 µM
TGI [16]: 44.7 µM
GI50 [17]: 3.74 µM
TGI [17]: 17.1 µM
GI50 [18]: 0.0726 µM
TGI [18]: 0.38 µM
GI50 [19]: 1.04 µM
TGI [19]: 23 µM
GI50 [20]: 13 µM
TGI [20]: 26.6 µM
GI50 [21]: 14.4 µM
TGI [21]: 28.2 µM
GI50 [22]: 15.3 µM
TGI [22]: 32.4 µM
GI50 [23]: 15 µM
TGI [23]: 30.4 µM
GI50 [24]: 0.208 µM
TGI [24]: 12.8 µM
GI50 [25]: 13 µM
TGI [25]: 26.7 µM
GI50 [26]: 14.4 µM
TGI [26]: 30 µM
GI50 [27]: 18.3 µM
TGI [27]: 51 µM
GI50 [28]: 0.0801 µM
TGI [28]: 0.214 µM
GI50 [29]: 12.3 µM
TGI [29]: 33.5 µM
GI50 [30]: 0.205 µM
TGI [30]: 12.5 µM
GI50 [31]: 13.5 µM
TGI [31]: 29.4 µM
GI50 [32]: 14.8 µM
TGI [32]: 38.4 µM
GI50 [33]: 0.342 µM
TGI [33]: 2.31 µM
GI50 [34]: 0.168 µM
TGI [34]: 2.73 µM
GI50 [35]: 0.0668 µM
TGI [35]: 0.287 µM
GI50 [36]: 13.4 µM
TGI [36]: 34.7 µM
GI50 [37]: 12.5 µM
TGI [37]: 27.1 µM
GI50 [38]: 2.48 µM
TGI [38]: 26.1 µM
GI50 [39]: 2.54 µM
TGI [39]: 17.5 µM
GI50 [40]: 15.5 µM
TGI [40]: 31.3 µM
GI50 [41]: 0.379 µM
TGI [41]: 14.3 µM
GI50 [42]: 15.1 µM
TGI [42]: 29.5 µM
GI50 [43]: 4.43 µM
TGI [43]: 20.2 µM
GI50 [44]: 13.7 µM
TGI [44]: 26.8 µM
GI50 [45]: 11.8 µM
TGI [45]: 24.2 µM
GI50 [46]: 10.5 µM
TGI [46]: 25.7 µM
GI50 [47]: 12.1 µM
TGI [47]: 25.2 µM
GI50 [48]: 14.9 µM
TGI [48]: 41.2 µM
GI50 [49]: 8.49 µM
TGI [49]: 27.3 µM
GI50 [50]: 17.2 µM
TGI [50]: 43.6 µM
GI50 [51]: 0.652 µM
TGI [51]: 18.6 µM
GI50 [52]: 0.118 µM
TGI [52]: 0.782 µM
GI50 [53]: 0.0425 µM
TGI [53]: 0.236 µM
GI50 [54]: 0.992 µM
TGI [54]: 16.4 µM
GI50 [55]: 0.0986 µM
TGI [55]: 0.429 µM
GI50 [56]: 0.115 µM
TGI [56]: 0.909 µM
GI50 [57]: 3.24 µM
TGI [57]: 21.4 µM
